Test results as given in US11591369B2, “Alpha(v)beta(6) integrin-binding peptides and methods of use thereof” (priority 2018, dated 2023).
Several values for one entry are separate records, joined by “and”; a condition that tells them apart may be missing. Equal values may be shown once. Read-outs that look alike come from different tables or passages of the source. Where a SMILES comes first, the peptide text is derived from it. Primed or numbered codes have the meaning given here. Where no end group is shown, it is not given here. [ ]: non-standard residue; d: D form. The star is where a group is joined. (18F)FB = [18F] fluorobenzoyl group, O=C(c1ccc([18F])cc1)*; (18F)FB″ = [18F]fluorobenzoyl, O=C(c1ccc([18F])cc1)*; PEG12′ = polyethylene glycol, 12 units; PEG28″ = polyethylene glycol, 28 units; PEG2′ = polyethylene glycol, 2 units; PEG4′ = polyethylene glycol, 4 units; PEG8′ = polyethylene glycol, 8 units; Benzoyl(4-F) = O=C(c1ccc(F)cc1)*; PEG28′ = polyethylene glycol-28; Amb = aminomethylbenzoyl

Legend:
[1] = tested on: DX3puroβ6 (αvβ6+) cells; assay: [18F]-radiolabeled peptide cell binding and internalization, DX3puroβ6 (αvβ6+) cells; assay type: cell-based, human; set-up: fold increase in binding to DX3puroβ6 (αvβ6+) cells / fold lower binding to DX3puroβ6 (αvβ6+) cells: reference not given here; settings: for binding to DX3puroβ6 (αvβ6+) cells: % of total activity, 37° C.
[2] = molecular target: T1, αvβ3 integrin (Homo sapiens, UniProt P05106+P06756); assay: Competitive binding ELISA, αvβ3 integrin
T1 construct: All purified integrins were purchased from R&D Systems (MN, USA); purchased R&D Systems (MN, USA)

[3] = Circular dichroism (CD) spectroscopy; assay type: physicochemical; settings: for % Helical Content CD Buffer: 25 mM phosphate + 100 mM NaF; for % Helical Content CD Buffer + 30% TFE: buffer with 30% trifluoroethanol; for α-helix formation in CD buffer with TFE: buffer with added TFE, 30%
[4] = molecular target: T2, αvβ6 integrin (Homo sapiens, UniProt P06756+P18564); assay: Competitive binding ELISA against biotinylated LAP (BtLAP), αvβ6 integrin; settings: for binding selectivity for αvβ6 over αvβ3 and αvβ8 integrins: ELISA IC50 ratio; for IC50 αvβ6: competitive ELISA vs BtLAP, mean ± SD, n = 3
T2 construct: All purified integrins were purchased from R&D Systems (MN, USA); purchased R&D Systems (MN, USA)

[5] = molecular target: T3, αvβ8 integrin (Homo sapiens, UniProt P06756+P26012); assay: Competitive binding ELISA, αvβ8 integrin
T3 construct: All purified integrins were purchased from R&D Systems (MN, USA); purchased R&D Systems (MN, USA)

[6] = tested on: αvβ6-expressing human tumors; settings: mouse, in vivo; cited from earlier work
[7] = 37° C., 1 hour, radio-HPLC

| Compound | IC50 [2] [nM] | IC50 [4] [nM] | IC50 [5] [nM] | binding to DX3puroβ6 (αvβ6+) cells ([1]; 1 hour) | DX3puroβ6 (αvβ6+)/DX3puro (αvβ6−) selectivity ratio [1] | intact peptide in mouse serum [7] | percent internalized relative to the amount bound to DX3puroβ6 (αvβ6+) cells ([1]; 1 hour) [%] | also measured |
| --- | --- | --- | --- | --- | --- | --- | --- | --- |
| CC(C)C[C@H](NC(=O)[C@H](CC(=O)O)NC(=O)CNC(=O)[C@H](CCCNC(=N)N)NC(=O)c1ccc(F)cc1)C(=O)N[C@@H](C)C(=O)N[C@@H](CC(=O)O)C(=O)N[C@@H](CC(C)C)C(=O)N[C@@H](CCCNC(=N)N)C(=O)N[C@@H](CCC(N)=O)C(=O)N[C@@H](CCCCN)C(=O)N[C@H](C(=O)N[C@@H](C)C(=O)N[C@@H](CCCNC(=N)N)C(=O)N[C@H](C(N)=O)[C@@H](C)O)C(C)C [P3Q] ({Benzoyl(4-F)}-RGDLADLRQKVART-NH2) | > 100000 | 4 ± 1 | 20 ± 3 | – | – | – | – | DX3puroβ6 (αvβ6+)/DX3puro (αvβ6−) selectivity ratio ([1]; cell binding, 1 hour): 11.8 ± 0.4:1; % Helical Content CD Buffer [3]: 14.7%; % Helical Content CD Buffer + 30% TFE [3]: 30% |
| CC(C)C[C@H](NC(=O)[C@H](Cc1ccc(O)cc1)NC(=O)[C@@H](NC(=O)[C@H](CC(C)C)NC(=O)[C@H](CC(=O)O)NC(=O)CNC(=O)[C@@H](NC(=O)c1ccc(F)cc1)C(C)C)[C@@H](C)O)C(=O)N[C@@H](CCCCN)C(=O)N[C@@H](CCCCN)C(=O)N[C@@H](CCCCN)C(=O)N[C@H](C(=O)N[C@@H](C)C(=O)N[C@@H](CCCNC(=N)N)C(=O)N[C@H](C(N)=O)[C@@H](C)O)C(C)C [P1K-b] | > 100000 | 10 ± 2 | > 100000 | – | – | – | – | binding selectivity for αvβ6 over αvβ3 and αvβ8 integrins [4]: 10,000 :1; IC50 αvβ6 [4]: low nanomolar |
| CC(C)C[C@H](NC(=O)[C@H](CC(=O)O)NC(=O)CNC(=O)[C@@H](N)CCCNC(=N)N)C(=O)N[C@@H](C)C(=O)N[C@@H](CC(=O)O)C(=O)N[C@@H](CC(C)C)C(=O)N[C@@H](CCCNC(=N)N)C(=O)N[C@@H](CCCCNC(=O)c1ccc(F)cc1)C(N)=O [P3] (H-RGDLADLRK(Benzoyl(4-F))-NH2) | > 100000 | 420 ± 70 | 200 ± 20 | 10.8±1.4% | – | – | – | DX3puroβ6 (αvβ6+)/DX3puro (αvβ6−) selectivity ratio ([1]; cell binding, 1 hour): 1.4±0.2 :1; % Helical Content CD Buffer [3]: 11.6%; % Helical Content CD Buffer + 30% TFE [3]: 7% |
| FB-NAVPNLRGDLQVLAQKVART [A20FMDV2, reference compound] | – | – | – | – | 10:1 | – | – | unmetabolized peptide in urine [6]: no unmetabolized peptide was detected |
| CC(C)C[C@H](NC(=O)[C@H](Cc1ccc(O)cc1)NC(=O)[C@@H](NC(=O)[C@H](CC(C)C)NC(=O)[C@H](CC(=O)O)NC(=O)CNC(=O)[C@@H](NC(=O)c1ccc(F)cc1)C(C)C)[C@@H](C)O)C(=O)N[C@@H](CCCCN)C(=O)N[C@@H](CCCNC(=N)N)C(=O)N[C@@H](CCCCN)C(=O)N[C@@H](C)C(=O)N[C@H](C(=O)N[C@H](C(=O)N[C@@H](CCC(N)=O)C(N)=O)C(C)C)[C@@H](C)O [P1Q-Scrb] ({Benzoyl(4-F)}-VGDLTYLKRKATVQ-NH2) | > 100000 | 14 ± 2 | 2900 ± 740 | – | – | – | – | IC50 αvβ6 [4]: low nanomolar |
| CC(C)C[C@H](NC(=O)[C@H](CC(=O)O)NC(=O)[C@H](CO)NC(=O)[C@H](CCCNC(=N)N)NC(=O)c1ccc(F)cc1)C(=O)N[C@H](C(=O)N1CCC[C@H]1C(=O)N[C@@H](CC(C)C)C(=O)N[C@@H](Cc1ccccc1)C(=O)N[C@@H](CCC(N)=O)C(=O)N[C@@H](CCCCN)C(=O)N[C@H](C(=O)N[C@@H](C)C(=O)N[C@@H](CCCNC(=N)N)C(=O)N[C@H](C(N)=O)[C@@H](C)O)C(C)C)[C@@H](C)O [KL3Q] ({Benzoyl(4-F)}-RSDLTPLFQKVART-NH2) | > 100000 | 8.7 ± 0.7 | > 100000 | – | – | – | – | – |
| CC(C)C[C@H](NC(=O)[C@H](Cc1ccc(O)cc1)NC(=O)[C@@H](NC(=O)[C@H](CC(C)C)NC(=O)[C@H](CC(=O)O)NC(=O)CNC(=O)[C@@H](NC(=O)c1ccc(F)cc1)C(C)C)[C@@H](C)O)C(=O)N[C@@H](CCCCN)C(=O)N[C@@H](CCC(N)=O)C(=O)N[C@@H](CCCCN)C(=O)N[C@H](C(=O)N[C@@H](C)C(=O)N[C@@H](CCCNC(=N)N)C(=O)N[C@H](C(=O)NCCOCCOCCOCCOCCOCCOCCOCCOCCOCCOCCOCCOCCOCCOCCOCCOCCOCCOCCOCCOCCOCCOCCOCCOCCOCCOCCOCCOCCC(N)=O)[C@@H](C)O)C(C)C [T1] | – | – | – | 18.1±0.8% | 41.7±5.3 :1 | 61% | – | – |
| [^18F]FB-PEG4-VGDLTYLKQKVART-PEG28 ({(18F)FB″-PEG4′}-VGDLTYLKQKVART[PEG28″]) [N-[^18F]T1-b] | – | – | – | – | – | – | 33.9±7.9 | intact peptide in mouse serum ([7]; 60 min): 72% and 75% |
| [^18F]FB-PEG12-VGDLTYLKQKVART-PEG28 ({(18F)FB″-PEG12′}-VGDLTYLKQKVART[PEG28″]) [N-[^18F]T1-d] | – | – | – | – | – | 82% | 32±13 | – |
| [^18F]FB-VGDLTYLKQKVART-PEG28 ({(18F)FB″}-VGDLTYLKQKVART[PEG28′]) [N-[^18F]T1] | – | – | – | 18.1±0.8% | 41.7±5.3 :1 | 61% | – | fold increase in binding to DX3puroβ6 (αvβ6+) cells [1]: 3 fold |
| [^18F]FB-PEG28Amb-VGDLTYLKQKVART-PEG28 ({(18F)FB-PEG28′-Amb}-VGDLTYLKQKVART[PEG28′]) [N-[^18F]T1-g] | – | – | – | 3±0.2% | 5.7±0.06 :1 and 5.7±0.05 :1 | 90% | 43.1±4.4 | fold loss in selectivity for DX3puroβ6 (αvβ6+) cells [1]: 7 fold; fold lower binding to DX3puroβ6 (αvβ6+) cells [1]: 2 fold |
| CC(C)C[C@H](NC(=O)[C@H](Cc1ccc(O)cc1)NC(=O)[C@@H](NC(=O)[C@H](CC(C)C)NC(=O)[C@H](CC(=O)O)NC(=O)CNC(=O)[C@@H](N)C(C)C)[C@@H](C)O)C(=O)N[C@@H](CCCCN)C(=O)N[C@@H](CCCCNC(=O)c1ccc(F)cc1)C(N)=O [P1] (H-VGDLTYLKK(Benzoyl(4-F))-NH2) | > 100000 | 450 ± 60 | 5300 ± 140 | – | 1.1 ± 0.1:1 | – | – | % Helical Content CD Buffer [3]: 6.3%; % Helical Content CD Buffer + 30% TFE [3]: 9.5%; α-helix formation in CD buffer with TFE [3]: could not form the helix |
| VGDLTYLKK([^18F]FB) (VGDLTYLKK((18F)FB″)) [[^18F]P1] | – | – | – | 12.8±1.9% | – | 25% and < 25% | 3.7±0.6 | – |
| CC(C)C[C@H](NC(=O)[C@H](Cc1ccc(O)cc1)NC(=O)[C@@H](NC(=O)[C@H](CC(C)C)NC(=O)[C@H](CC(=O)O)NC(=O)CNC(=O)[C@@H](NC(=O)c1ccc(F)cc1)C(C)C)[C@@H](C)O)C(=O)N[C@@H](CCCCN)C(=O)N[C@@H](CCC(N)=O)C(=O)N[C@@H](CCCCN)C(=O)N[C@H](C(=O)N[C@@H](C)C(=O)N[C@@H](CCCNC(=N)N)C(=O)N[C@H](C(N)=O)[C@@H](C)O)C(C)C [P1Q] | > 100000 | 12 ± 1 | > 100000 | – | 10.3 ± 1:1 | – | – | % Helical Content CD Buffer [3]: 1.6%; % Helical Content CD Buffer + 30% TFE [3]: 45.1%; α-helix formation in CD buffer with TFE [3]: α-helices were induced; binding selectivity for αvβ6 over αvβ3 and αvβ8 integrins [4]: 10,000 :1; IC50 αvβ6 [4]: low nanomolar |
| [^18F]FB-Amb-VGDLTYLKQKVART-PEG28 ({(18F)FB″-Amb}-VGDLTYLKQKVART[PEG28′]) [N-[^18F]T1-f] | – | – | – | 6.8±0.2% | 3.2±0.4 :1 | < 50% | 25.2±2.4 | fold loss in selectivity for DX3puroβ6 (αvβ6+) cells [1]: 13 fold; fold decline in binding to DX3puroβ6 (αvβ6+) cells ([1]; compared to the parent T1): 3 fold |
| [^18F]FB-RGDLADLRQKVART ({(18F)FB″}-RGDLADLRQKVART) [N-[^18F]P3Q] | – | – | – | 20±0.4% and 20±0.2% and 20% | – | 16% | 12.4±3.6 | – |
| [^18F]FB-PEG8-VGDLTYLKQKVART-PEG28 ({(18F)FB″-PEG8′}-VGDLTYLKQKVART[PEG28″]) [N-[^18F]T1-c] | – | – | – | – | – | 91% | 36.9±3 | – |
| [^18F]FB-RGDLTYLKQKVART-PEG28 ({(18F)FB″}-RGDLTYLKQKVART[PEG28′]) [N-[^18F]T1-V1R] | – | – | – | 34.2±0.2% | 11.1±0.5 :1 | 54% | 11.1±2.6 | fold increase in binding to DX3puroβ6 (αvβ6+) cells [1]: 6 fold |
| CC(C)C[C@H](NC(=O)[C@H](CC(=O)O)NC(=O)[C@H](CO)NC(=O)[C@H](CCCNC(=N)N)NC(=O)c1ccc(F)cc1)C(=O)N[C@H](C(=O)N1CCC[C@H]1C(=O)N[C@@H](CC(C)C)C(=O)N[C@@H](Cc1ccccc1)C(N)=O)[C@@H](C)O [KL3] ({Benzoyl(4-F)}-RSDLTPLF-NH2) | > 100000 | 1700 ± 500 | > 100000 | 0.7±0.2% | – | – | – | DX3puroβ6 (αvβ6+)/DX3puro (αvβ6−) selectivity ratio ([1]; cell binding, 1 hour): 0.9±0.5 :1 |
| [^18F]FB-PEG2-VGDLTYLKQKVART-PEG28 ({(18F)FB″-PEG2′}-VGDLTYLKQKVART[PEG28″]) [N-[^18F]T1-a] | – | – | – | – | – | 65% | 31.1±7.2 | – |
| RGDLADLRK([^18F]FB) (RGDLADLRK((18F)FB″)) [[^18F]P3] | – | – | – | 10.8±1.4% | – | 0% | 4.3±0.6 | – |
